The source made the active and inactive calls. The rule behind the calls is not given here.
How the values were obtained:
Acetylcholinesterase = Acetylcholinesterase (Electrophorus electricus, UniProt O42275); assay: Inhibition of Electrophorus electricus AChE using acetylthiocholine iodide as substrate measured after 15 mins by Ellman's method
[1] = target: T1, Amine oxidase [flavin-containing] A (Homo sapiens, UniProt P21397); assay: Inhibition of human recombinant MAO-A using kynuramine as substrate at 20 uM measured after 30 mins by fluorescence assay relative to control; conditions: 0.5 h
T1 sequence (P21397 whole entry): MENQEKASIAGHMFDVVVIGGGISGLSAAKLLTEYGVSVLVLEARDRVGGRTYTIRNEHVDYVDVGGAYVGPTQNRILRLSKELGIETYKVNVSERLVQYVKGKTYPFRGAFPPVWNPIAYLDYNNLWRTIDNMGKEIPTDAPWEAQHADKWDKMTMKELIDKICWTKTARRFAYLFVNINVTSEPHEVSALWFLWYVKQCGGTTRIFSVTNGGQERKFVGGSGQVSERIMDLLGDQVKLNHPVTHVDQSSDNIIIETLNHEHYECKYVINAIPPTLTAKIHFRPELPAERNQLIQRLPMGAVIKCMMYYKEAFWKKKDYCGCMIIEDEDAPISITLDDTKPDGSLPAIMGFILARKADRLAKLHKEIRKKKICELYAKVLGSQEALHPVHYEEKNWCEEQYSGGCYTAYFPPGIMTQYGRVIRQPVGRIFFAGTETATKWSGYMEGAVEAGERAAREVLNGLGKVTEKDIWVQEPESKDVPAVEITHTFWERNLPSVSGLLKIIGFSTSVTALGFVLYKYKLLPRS

[2] = target: Amyloid-beta precursor protein (Homo sapiens) (UniProt P05067); assay: Inhibition of self-mediated aggregation of amyloid beta (1 to 42 residues) (unknown origin) at 25 uM incubated for 24 hrs by Thioflavin T fluorescence assay relative to control
Chain of Amyloid-beta precursor protein (Homo sapiens) (P05067 whole entry, the tested form may be a part): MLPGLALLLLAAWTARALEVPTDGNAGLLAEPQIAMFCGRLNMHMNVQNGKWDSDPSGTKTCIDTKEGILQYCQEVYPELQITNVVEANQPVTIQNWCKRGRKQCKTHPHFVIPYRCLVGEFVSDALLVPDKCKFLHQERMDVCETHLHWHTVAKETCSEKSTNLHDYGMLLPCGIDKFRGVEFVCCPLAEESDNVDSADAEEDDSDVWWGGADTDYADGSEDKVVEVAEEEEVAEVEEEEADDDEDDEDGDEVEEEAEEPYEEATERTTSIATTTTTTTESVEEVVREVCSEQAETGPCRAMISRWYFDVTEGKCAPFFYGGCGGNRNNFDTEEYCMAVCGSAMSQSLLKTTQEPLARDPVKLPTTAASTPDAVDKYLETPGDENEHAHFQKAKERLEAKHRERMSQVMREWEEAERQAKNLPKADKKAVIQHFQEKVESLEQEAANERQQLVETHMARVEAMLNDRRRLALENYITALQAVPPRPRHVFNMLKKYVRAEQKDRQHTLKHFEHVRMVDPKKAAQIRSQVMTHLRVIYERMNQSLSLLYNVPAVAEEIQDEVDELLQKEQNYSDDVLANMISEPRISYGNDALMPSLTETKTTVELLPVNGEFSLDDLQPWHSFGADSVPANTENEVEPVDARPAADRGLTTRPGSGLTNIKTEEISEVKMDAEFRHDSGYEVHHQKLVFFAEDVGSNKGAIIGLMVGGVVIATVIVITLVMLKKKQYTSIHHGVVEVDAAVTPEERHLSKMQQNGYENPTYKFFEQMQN

[3] = target: Butyrylcholinesterase (Rattus norvegicus) (UniProt Q9JKC1); assay: Inhibition of rat serum BuChE at 50 uM measured after 15 mins by Ellman's method relative to control
Chain of Butyrylcholinesterase (Rattus norvegicus) (Q9JKC1 as listed by the source): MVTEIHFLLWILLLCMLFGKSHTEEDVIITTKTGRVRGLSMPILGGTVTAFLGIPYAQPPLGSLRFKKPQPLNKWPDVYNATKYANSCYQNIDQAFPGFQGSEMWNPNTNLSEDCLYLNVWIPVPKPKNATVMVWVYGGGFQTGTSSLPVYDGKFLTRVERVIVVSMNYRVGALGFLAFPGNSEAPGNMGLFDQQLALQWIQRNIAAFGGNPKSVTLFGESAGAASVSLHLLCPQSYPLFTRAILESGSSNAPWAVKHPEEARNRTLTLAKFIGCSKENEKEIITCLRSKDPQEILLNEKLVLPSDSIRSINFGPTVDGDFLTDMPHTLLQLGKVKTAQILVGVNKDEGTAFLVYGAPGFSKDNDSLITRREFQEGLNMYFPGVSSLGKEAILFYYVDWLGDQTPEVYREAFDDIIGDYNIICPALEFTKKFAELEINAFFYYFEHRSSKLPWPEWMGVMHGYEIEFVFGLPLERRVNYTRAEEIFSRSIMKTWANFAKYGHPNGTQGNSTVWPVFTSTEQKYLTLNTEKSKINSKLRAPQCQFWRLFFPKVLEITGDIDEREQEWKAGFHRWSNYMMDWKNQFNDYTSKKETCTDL

Homo sapiens = species on record: Homo sapiens; assay: Selectivity index, ratio of IC50 for human recombinant MAO-A to IC50 for human recombinant MAO-B
[4] = target: T2, Amine oxidase [flavin-containing] B (Homo sapiens, UniProt P27338)
T2 sequence (P27338 whole entry): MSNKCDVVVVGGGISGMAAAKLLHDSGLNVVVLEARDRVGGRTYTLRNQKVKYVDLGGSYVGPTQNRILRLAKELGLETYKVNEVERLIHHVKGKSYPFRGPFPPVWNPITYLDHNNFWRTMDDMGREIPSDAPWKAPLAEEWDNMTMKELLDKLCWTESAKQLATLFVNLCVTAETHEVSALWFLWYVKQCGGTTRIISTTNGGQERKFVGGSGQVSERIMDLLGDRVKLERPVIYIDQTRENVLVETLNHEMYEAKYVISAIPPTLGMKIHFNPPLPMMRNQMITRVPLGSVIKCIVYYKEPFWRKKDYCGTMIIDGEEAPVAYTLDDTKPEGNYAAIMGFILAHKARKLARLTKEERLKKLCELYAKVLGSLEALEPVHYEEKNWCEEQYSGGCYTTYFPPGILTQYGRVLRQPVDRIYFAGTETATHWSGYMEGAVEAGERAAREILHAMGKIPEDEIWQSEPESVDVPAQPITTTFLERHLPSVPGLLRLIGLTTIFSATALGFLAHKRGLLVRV
Description: Inhibition of human recombinant MAO-B using kynuramine as substrate measured after 30 mins by fluorescence assay

[5] = Inhibition of copper-mediated aggregation of amyloid beta (1 to 42 residues) (unknown origin) at 25 uM incubated for 24 hrs by thioflavin-T fluorescence assay relative to control; type: physicochemical
[6] = Antioxidant activity assessed as trolox equivalent of […]-induced radical scavenging activity preincubated for 15 mins followed by AAPH addition measured every minute for 120 mins by ORAC fluorescein assay; type: functional
[7] = target: T2, Amine oxidase [flavin-containing] B; assay: Inhibition of human recombinant MAO-B using kynuramine as substrate at 20 uM measured after 30 mins by fluorescence assay relative to control; conditions: 0.5 h
[8] = Permeability of the compound at 100 ug/ml after 18 hrs by PAMPA assay; type: ADME; conditions: read-out: permeability
[9] = Metal chelating activity assessed as iron-compound complex formation at 37.5 uM in presence of FeSO4 measured after 30 mins by UV-vis spectrometry; type: physicochemical; conditions: 0.5 h
[10] = Metal chelating activity assessed as copper-compound complex formation at 37.5 uM in presence of CuCl2 measured after 30 mins by UV-vis spectrometry; type: physicochemical; conditions: 0.5 h
[11] = Cytotoxicity against rat PC12 cells assessed as cell viability at 100 uM measured after 48 hrs by MTT assay relative to control; type: toxicity, PC-12; conditions: read-out: Activity
Rattus norvegicus = species on record: Rattus norvegicus; assay: Cytotoxicity against rat PC12 cells assessed as effect on cell viability at 1 to 10 uM measured after 48 hrs by MTT assay; type: toxicity, cell-based; conditions: pc-12, 48 h
[12] = target: Acetylcholinesterase (Electrophorus electricus) (UniProt O42275); assay: Mixed-type inhibition of […] AChE preincubated for 15 mins followed by addition of acetylthiocholine iodide as substrate in varying concentrations by Lineweaver-Burk reciprocal plot analysis
Chain of Acetylcholinesterase (Electrophorus electricus) (O42275 24-633 limits assumed): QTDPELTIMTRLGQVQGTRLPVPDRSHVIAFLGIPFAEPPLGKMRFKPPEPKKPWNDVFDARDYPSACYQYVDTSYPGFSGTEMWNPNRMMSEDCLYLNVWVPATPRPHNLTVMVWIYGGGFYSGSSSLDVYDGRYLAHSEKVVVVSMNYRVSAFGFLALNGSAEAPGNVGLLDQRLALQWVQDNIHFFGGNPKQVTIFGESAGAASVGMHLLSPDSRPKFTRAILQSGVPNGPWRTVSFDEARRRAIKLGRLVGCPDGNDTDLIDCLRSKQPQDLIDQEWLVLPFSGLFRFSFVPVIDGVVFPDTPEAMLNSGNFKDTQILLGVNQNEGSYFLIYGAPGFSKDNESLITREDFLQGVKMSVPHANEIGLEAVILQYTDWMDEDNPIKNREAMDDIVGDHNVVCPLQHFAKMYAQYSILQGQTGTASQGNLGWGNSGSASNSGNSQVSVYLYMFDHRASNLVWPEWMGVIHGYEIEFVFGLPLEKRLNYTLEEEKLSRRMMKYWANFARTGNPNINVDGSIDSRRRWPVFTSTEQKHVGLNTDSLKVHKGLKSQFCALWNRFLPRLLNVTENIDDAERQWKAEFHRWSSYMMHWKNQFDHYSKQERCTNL

[13] = Metal chelating activity assessed as aluminium-compound complex formation at 37.5 uM in presence of AlCl3 measured after 30 mins by UV-vis spectrometry; type: physicochemical; conditions: 0.5 h
[14] = Metal chelating activity assessed as zinc-compound complex formation at 37.5 uM in presence of ZnCl2 measured after 30 mins by UV-vis spectrometry; type: physicochemical; conditions: 0.5 h

Chain of Acetylcholinesterase (O42275 whole entry): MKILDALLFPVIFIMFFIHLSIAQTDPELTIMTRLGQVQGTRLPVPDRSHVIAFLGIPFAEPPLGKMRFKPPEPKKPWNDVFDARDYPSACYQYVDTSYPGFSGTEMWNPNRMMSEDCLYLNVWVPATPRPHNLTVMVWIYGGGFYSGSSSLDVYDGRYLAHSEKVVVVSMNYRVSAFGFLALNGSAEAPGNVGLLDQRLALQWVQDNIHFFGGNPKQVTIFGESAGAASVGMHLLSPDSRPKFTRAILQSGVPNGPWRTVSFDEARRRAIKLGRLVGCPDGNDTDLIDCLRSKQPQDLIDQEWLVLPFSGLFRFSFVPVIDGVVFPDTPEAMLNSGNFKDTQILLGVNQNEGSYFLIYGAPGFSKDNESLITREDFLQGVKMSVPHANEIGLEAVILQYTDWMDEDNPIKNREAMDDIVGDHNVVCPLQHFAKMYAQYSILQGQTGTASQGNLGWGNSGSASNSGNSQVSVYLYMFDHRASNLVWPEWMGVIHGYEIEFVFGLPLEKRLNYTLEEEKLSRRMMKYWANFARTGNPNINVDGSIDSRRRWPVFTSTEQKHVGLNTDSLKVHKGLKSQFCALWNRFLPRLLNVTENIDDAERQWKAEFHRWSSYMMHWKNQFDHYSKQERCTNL

SMILES	IC50 (Acetylcholinesterase) [µM]	inhibition [1] [%]	inhibition [2] [%]	inhibition [3] [%]	Ratio IC50 (Homo sapiens)	IC50 [4] [µM]	inhibition (INH) [5] [%]	Activity [6] [equiv]	inhibition at 20 µM [7] [%]	Papp at 18 h, 100 ug/ml [8] [×10⁻⁶ cm/s]	Activity [9]	Activity [10]	viability at 48 h, 100 µM [11] [%]	Activity (Rattus norvegicus)	inhibition [12]	Activity [13]	Activity [14]
COc1cc2c(cc1OC)C(=O)/C(=C/c1cccc(O)c1)CO2	59.3	21.9	20.1	6.18	> 105	0.19	30.3	1.73									
COc1cc2c(cc1OC)C(=O)/C(=C/c1ccc(CN3CCOCC3)c(O)c1)CO2	1.29	23	28.3	< 5	> 19.8	1.01	38.7	1.35									
CCN(Cc1ccccc1)Cc1c(O)cccc1/C=C1\COc2cc(OC)c(OC)cc2C1=O	172	9.8	8	< 5			28	1.34	38.1								
COc1cc2c(cc1OC)C(=O)/C(=C/c1ccc(CN3CCN(C)CC3)c(O)c1)CO2	6.26	40.5	41.9	< 5	> 21.9	0.915	40.5	2.11									
COc1ccccc1CN(C)Cc1ccc(/C=C2\COc3cc(OC)c(OC)cc3C2=O)cc1O	16.4	12.3	37.8	11.2	> 19.4	1.03	67.8	1.78									
COc1cc2c(cc1OC)C(=O)/C(=C/c1ccc(O)c(CN3CCCCC3)c1)CO2	0.928	17	41.4	< 5	> 1.4	14	49	2.32									
CCN(CC)Cc1ccc(/C=C2\COc3cc(OC)c(OC)cc3C2=O)cc1O	0.0068	9.5	21.2	7.72	> 8.2	2.43	40.6	1.97									
COc1cc2c(cc1OC)C(=O)/C(=C/c1cccc(O)c1CN1CCN(C)CC1)CO2	84.1	6.8	26.8	< 5			36.3	1.83	29.8								
COc1cc(/C=C/C(=O)CC(=O)/C=C/c2ccc(O)c(OC)c2)ccc1O [CURCUMIN]							67.2										
CCN(CC)Cc1c(O)cccc1/C=C1\COc2cc(OC)c(OC)cc2C1=O	37.4	8.5	20.1	6.31			29.1	2.05	36.7								
CCN(Cc1ccccc1)Cc1ccc(/C=C2\COc3cc(OC)c(OC)cc3C2=O)cc1O	0.364	15	32.7	< 5	> 11.6	1.72	49.9	1.13									
COc1cc2c(cc1OC)C(=O)/C(=C/c1cccc(O)c1CN1CCOCC1)CO2	85.9	2.1	7.8	7.85			32.4	1.52	18.6								
COc1cc2c(cc1OC)C(=O)/C(=C/c1ccc(CN(C)C)c(O)c1)CO2	0.536	8.2	35.2	< 5	> 22.7	0.882	42.2	1.71									
COc1cc2c(cc1OC)C(=O)/C(=C/c1ccc(CN3CCCC3)c(O)c1)CO2	0.362	16.4	37.3	24.1	> 27.7	0.722	36.5	1.65		11.1							
CCN(Cc1ccc(/C=C2\COc3cc(OC)c(OC)cc3C2=O)cc1O)Cc1ccccc1OC	15.7	14	44	22.7	> 13.3	1.5	65.8	1.8		6.05							
COc1cc2c(cc1OC)C(=O)/C(=C/c1ccc(CN(C)Cc3ccccc3)c(O)c1)CO2	1.99	3.4	7.7	< 5	> 17.4	1.15	42.6	1.57									
COc1cc2c(cc1OC)C(=O)/C(=C/c1ccc(CN3CCCCC3)c(O)c1)CO2	0.00249	24.6	39.3	19.8	> 11.5	1.74	47	2.25		10.4	Active	Active	63.4	Non-Toxic	Active	Active	
COc1ccccc1CN(C)Cc1c(O)cccc1/C=C1\COc2cc(OC)c(OC)cc2C1=O	33.3	9.8	35.6	16			54.9	1.69	43.9								
CCN(Cc1ccc(/C=C2\COc3cc(OC)c(OC)cc3C2=O)cc1O)Cc1ccccc1N(C)C	18.1	28.3	59.6	44.6	> 14.9	1.34	79.9	0.97		10.5	Active	Active				Active	Active
